According to PMC7219108, “Pisum sativum Defensin 1 Eradicates Mouse Metastatic Lung Nodules from B16F10 Melanoma Cells” (International Journal of Molecular Sciences, 2020):

Columns and labels:
[1] = tested on: fungal mutants lacking glucosylceramide synthase; details: cited from earlier work
[2] = tested on: recombinant cyclin F-GST; test: Surface plasmon resonance, Psd1-cyclin F interaction; format: binding
Method: Surface plasmon resonance (SPR) assays were run on a Biacore X (GE Healthcare Life Sciences, Amersham, UK) apparatus in real time using a CM5 sensor chip at 25 °C. Briefly, CM5 chip activation was performed by injection of 100 µL of a 1:1 mixture of amine coupling kit (750 mg 1-ethyl-3-(3-dimethylaminopropyl) carbodiimide hydrochloride (EDC), 115 mg N-hydroxysuccinimide (NHS), 2 × 10.5 mL 1.0 M ethanolamine-HCl pH 8.5) with a continuous flow of 2 µL/min. Then, 100 µL of […] recombinant cyclin F-GST diluted in 10 mM sodium acetate pH 4.0 buffer was immobilized by amine coupling onto the carboxylate dextran layer of CM5 with the same flow. This was injected with 80 µL of 1 M ethanolamine pH 8.0 to block the remaining binding free sites of the protein. To evaluate the interaction of Psd1 with the cyclin F protein, increasing concentrations of the peptide (10–240 µM) in 100 µL of running buffer (10 mM HEPES, 150 mM NaCl, pH 7.4) were injected using a flow rate of 15 µL/min for 4 min. After the injection ended, the dissociation phase was measured in not less than 300 s. The Psd1-GST-cyclin F interaction curves were subtracted from the respective curves obtained for Psd1-GST to discount possible artifact interactions with GST alone. […]

[3] = tested on: HSP-2 (human hepatocyte) cells; test: Cell viability, healthy HSP-2 cells; format: cell-based; details: 6 and 30 µM, 3 h
[4] = tested on: lung inflammatory cells, C57BL/6 mice; test: Lung histology (HE), inflammatory foci; format: in vivo, mouse
Source text: Figure 7 Psd1 inhibited the appearance of inflammatory cells in lung tissues. Two animals from each group of the in vivo experiment were anaesthetized and submitted to transcardial perfusion for further histological procedures. The lungs were removed and prepared for hematoxylin and eosin (HE) staining as described in the Materials and Methods. (A) Representative images from the lungs of one animal from each experimental group. […] The left and right panels indicate 10× and 20× magnifications, and the bars represent 200 and […], respectively. (B) Quantification of inflammatory infiltration (± SEM) was obtained in six fields, corresponding to 90% of the tissue. […] Values represent the mean ± SD of two independent experiments analyzed by one-way ANOVA and Bonferroni’s multiple comparison test.
After the above procedure, two animals from each group were anaesthetized and submitted to treatment with 4% paraformaldehyde in 0.1 M phosphate buffer (pH 7.4) by transcardial perfusion. The lung was removed and immersed in the same fixative solution. The lung specimens were sliced into 5 mm pieces, dehydrated through an ascending ethanol series (70, 95, and 100% ethanol for 30 min each) and then embedded in paraffin using standard procedures. Serial 5 µm-thick sections were prepared using a sliding microtome (Leica Microsystems, Wetzlar, Germany). Hematoxylin and eosin (HE) staining wereperformed to quantify possible foci of inflammatory infiltrates and fibrosis in experimental and control animals. The stained sections were observed, and digital images were taken with a Zeiss AxioPhot fluorescence microscope (Carl-Zeiss, Oberkochen, Germany). Specifically, two slices of each sample (six fields of each slice corresponding to approximately 90% of the slice) were used for quantitative analysis to obtain the mean value.

[5] = tested on: C57BL/6 mice; test: Toxicity observation in mice given Psd1 alone; format: in vivo
Method: Another group of animals received 1 mg/kg of Psd1 only (n = 9) to evaluate Psd1 toxicity. Twenty-one days later, the animals were anaesthetized and sacrificed, and the black lung melanoma nodules were counted and measured under a dissecting microscope (Zeiss AxioPhot fluorescence microscope (Carl-Zeiss, Oberkochen, Germany)).

[6] = tested on: B16F10 (murine skin melanoma) cells; test: MTT cell viability, B16F10 tumor cells; format: cell-based; details: 24 h, two independent experiments in triplicate, p < 0.001 vs untreated
[7] = tested on: B16F10 cells; test: Flow cytometry-based apoptosis detection (sub-G0/G1 DNA content); format: cell-based, murine; details: 50 µM, 24 h, propidium iodide; control Sub-G1 4.4%
Method: Figure 2 Psd1 promotes B16F10 live cell membrane permeabilization as monitored by SYTOX Green fluorescence. (A) Psd1 untreated and hydrogen peroxide-treated B16F10 cells. (B) A total of 1.5 × 10^4 B16F10 cells were incubated with 3 or 50 µM Psd1 for 30 min. (C) 1.5 × 10^4 B16F10 cells were incubated with 50 µM Psd1 for 1 h. All experiments were performed at 37 °C. Nucleus staining is shown in green (SYTOXGreen), and mitochondria are shown in red (MitoTracker Red CMXRos). Images are shown at 20× magnification. […] (E) Psd1 induces apoptosis in B16F10 cells. B16F10 cells were treated with 50 µM Psd1 for 24 h and labeled with propidium iodide, and the DNA content was analyzed by flow cytometry for the sub-G0/G1 profile. At least two independent experiments were performed. TEXT PRINTED IN THE PICTURE: (E) Control: Sub-G1: 4.4% | (E) Psd1: Sub-G1: 60.6% (50μM)
B16F10 cells (4 × 10^5 cells) were treated with 50 μM Psd1 for 24 h. After treatment, the cells were trypsinized, centrifuged, and washed twice with phosphate-buffered saline (PBS). The cells were then stained with Nicoletti buffer (0.1% sodium citrate, 0.1% NP-40, 200 μg/mL RNase, and 50 μg/mL propidium iodide). Doublets and debris were identified and excluded. Analysis of the DNA content was performed by collecting 20,000 events using a BD FACSCalibur flow cytometer (BD Biosciences, San Jose, CA, USA). […]

[8] = tested on: Fusarium solani planktonic cells; set-up: method as in PMID 17240982; details: cited from earlier work

Question: With “Psd1: 46-amino acid residue plant defensin isolated from pea seeds, expressed in Pichia pastoris (PDB 1JKZ) (KTCEHLADTYRGVCFTNASCDDHCKNKAHLISGTCHNWKCFCTQNC)” as the substance, how does the “Resistance of mutants to Psd1 antifungal activity and permeabilization” value [1] read?
Answer: partially resistant

Question: And the “SPR association phase, onset of response” value ([2]; after Psd1 injection, 15 µL/min, 4 min)?
Answer: 80 s

Question: What about the SPR dissociation phase ([2]; after injection ended) of the same substance?
Answer: full dissociation phase was observed

Question: What about the HSP-2 cell viability [3] of the same substance?
Answer: no alteration in cell viability

Question: And the “Inflammatory foci, Psd1 alone” value ([4]; 1 mg/kg Psd1 alone, i.v., day 21, p < 0.001 vs B16F10)?
Answer: very low inflammatory foci

Question: What about the “Number of lung inflammatory cells” value ([4]; 1 mg/kg Psd1 i.v. with B16F10 cells) of the same substance?
Answer: near zero

Question: What about the “Accumulation of lung inflammatory cells” value ([4]; 1 and 3 mg/kg Psd1 i.v. with B16F10 cells, day 21, p < 0.001 vs B16F10) of the same substance?
Answer: significant reduction in the accumulation of inflammatory cells

Question: What about the “Inflammation in lung tissue, weight or vital signal losses” value ([5]; 1 mg/kg Psd1 alone, over 21 days) of the same substance?
Answer: did not provoke inflammation in lung tissue or weight or vital signal losses over 21 days

Question: What about the “Behavior signals / mortality” value ([5]; Psd1 alone (1 mg/kg i.v.), vs PBS) of the same substance?
Answer: did not present changes in important behavior signals, such as changes in locomotion, piloerection, diarrhea, or mortality

Question: And the “Reduction of B16F10 cell viability (MTT)” value ([6]; 25 µM)?
Answer: approximately 50%

Question: What about the “Reduction of B16F10 cell viability (MTT)” value ([6]; 50 µM) of the same substance?
Answer: ~60%

Question: And the “Sub-G0/G1 (sub-G1) cells” value [7]?
Answer: 60.6%

Question: And the “Internalization and cell cycle effect” value [8]?
Answer: internalized in Fusarium solani planktonic cells, directing their cell cycle impairment and causing fungal endoreduplication
